± gives the expanded uncertainty stated by the source.
Assays:
[1] = 101.33 kPa, Liquid, Vibrating tube method
[2] = refractive index (Na D-line) (dimensionless); details: 298.2 K; 101.33 kPa; Liquid; Standard Abbe refractometry

Row | Structure (SMILES) | mass density ([1]; 293.2 K) [kg/m3] | refractive index [2] | mass density ([1]; 298.2 K) [kg/m3]
1 | CCCCCCCCCCCCS [1-dodecanethiol] | 843.94 ± 0.24 | 1.4586 ± 0.0008 | 
2 | CCCCCCCCCCO [decan-1-ol] |  | 1.4349 ± 0.0008 | 826.48 ± 0.24
3 | CCCCCCCCCCCCO [dodecan-1-ol] |  | 1.4412 ± 0.0008 | 829.76 ± 0.24
